{"source": "paper PMC8717366", "about": "“Synthesis and Pharmacological Characterization of Visabron, a Backbone Cyclic Peptide Dual Antagonist of α4β1 (VLA-4)/α9β1 Integrin for Therapy of Multiple Sclerosis” (JACS Au, 2021)", "key": {"JAK3": {"biological_target": "T1, JAK3 (Homo sapiens, UniProt P52333)", "T1 construct": "purchased Carna 08-046", "T1 sequence (P52333 whole entry)": "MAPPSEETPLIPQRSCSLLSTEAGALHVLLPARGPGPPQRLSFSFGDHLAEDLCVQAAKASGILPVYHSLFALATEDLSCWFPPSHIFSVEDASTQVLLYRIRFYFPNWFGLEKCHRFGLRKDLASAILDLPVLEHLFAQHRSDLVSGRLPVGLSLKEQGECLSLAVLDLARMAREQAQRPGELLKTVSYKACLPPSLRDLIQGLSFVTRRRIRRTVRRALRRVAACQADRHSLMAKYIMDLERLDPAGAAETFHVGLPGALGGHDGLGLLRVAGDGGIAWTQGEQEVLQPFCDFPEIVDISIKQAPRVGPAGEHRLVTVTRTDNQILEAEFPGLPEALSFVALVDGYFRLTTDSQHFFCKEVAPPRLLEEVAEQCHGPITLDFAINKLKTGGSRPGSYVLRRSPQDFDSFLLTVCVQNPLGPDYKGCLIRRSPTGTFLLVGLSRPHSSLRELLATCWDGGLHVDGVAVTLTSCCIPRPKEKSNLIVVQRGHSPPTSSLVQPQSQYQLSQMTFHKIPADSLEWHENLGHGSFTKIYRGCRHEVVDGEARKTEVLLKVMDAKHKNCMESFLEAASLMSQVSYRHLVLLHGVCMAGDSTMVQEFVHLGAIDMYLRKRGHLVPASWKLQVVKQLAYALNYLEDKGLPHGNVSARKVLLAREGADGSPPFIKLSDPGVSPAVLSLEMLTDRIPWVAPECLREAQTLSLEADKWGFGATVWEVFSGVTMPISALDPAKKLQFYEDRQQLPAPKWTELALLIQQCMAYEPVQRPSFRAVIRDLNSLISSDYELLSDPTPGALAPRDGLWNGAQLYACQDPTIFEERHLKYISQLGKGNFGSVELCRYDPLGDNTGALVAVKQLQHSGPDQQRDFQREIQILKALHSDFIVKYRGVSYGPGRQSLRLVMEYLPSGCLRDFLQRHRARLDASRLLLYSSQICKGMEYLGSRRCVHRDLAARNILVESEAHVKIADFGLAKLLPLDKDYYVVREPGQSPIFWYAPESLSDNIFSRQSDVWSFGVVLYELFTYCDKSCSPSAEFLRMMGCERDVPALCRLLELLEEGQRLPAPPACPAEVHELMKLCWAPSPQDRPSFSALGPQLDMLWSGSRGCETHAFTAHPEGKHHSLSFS", "assay": "PhosphoSens CSox-based kinase assay, JAK3", "format": "biochemical", "conditions": "1 mM, but not 0.1 mM; Figure 7", "procedure": "Kinase activity was measured using the PhosphoSenstechnology (AssayQuant Technologies Inc., Marlborough, MA) as detailed in the Supporting Information. […]\nVisabron c (4-4) safety by in vitro evaluation using PhosphoSens - CSox based kinase assays:\nA powerful method was used to measure the activity of recombinant protein kinases using a homogeneous and continuous (kinetic) format, where the level of chelation-enhanced fluorescence (CHEF) that is directly proportional to the amount of phosphorylated, real-time sensors consisting of sulfonamido-oxine (Sox) chromophore, linked to a peptide or protein substrates of selective kinases 6. […]\nKinase activity measurements: Kinase activity was measured continuously using the PhosphoSens® technology (AssayQuant Technologies Inc., Marlborough, MA) according to the manufacturers’ recommendations. This one-step homogeneous assay format uses chelation -enhanced fluorescence via optimized substrate sensors containing the unnatural fluorogenic amino -acid Sox. […]\nFinal reaction conditions : Protein kinase activity was determined in 54 mM HEPES, pH 7.5, 1 mM ATP, 1.2 mM DTT, 0.012% Brij-35, 0.52 mM EGTA, 10 mM MgCl2, 1% glycerol, 0.2mg/ml BSA, and 15 μM Sox -based sensor. […]"}, "[1]": {"conditions": "48 h", "procedure": "Eight-week-old C57Bl/6 mice were obtained from Envigo animal breeding center in Israel. All experiments were approved by the Institutional Animal Care and Use Committee, and performed according to OECD guidelines for chemical testing. One group of five mice (7683–87) received visabron c (4–4) by iv injection in a volume of 0.2 mL/mouse at a dose of 10 mg/mice (about 500 mg/kg), and another group of five mice (7688–92) received per-os visabron c (4–4) at a dose of 10 mg/mice, dissolved in a nanoemulsifying drug delivery system,[48] in a bolus of 0.4 mL/mouse. After 48 h of exposure, the animals were sacrificed and the organs were harvested for the detection of possible toxicological lesions in the framework of a safety assessment. Then the organs were fixed in 4% formaldehyde, trimmed in a standard position per organ, and transferred to embedding cassettes. Paraffin blocks were sectioned at approximately 3–5 μm thickness. The sections were applied on a glass slide and stained with hematoxylin and eosin (H&E). Pictures were taken on a microscope (Olympus BX60) at magnifications of X4 and X10 using the microscope’s camera (Olympus DP73). An experienced pathologist (Dr. Loeb Emanuel) examined the slides. Microscopically findings were classified with standard pathological nomenclature and the severity of the findings was graded on a scale of minimal, mild, or severe. Grades of severity for microscopic findings were subjective; minimal was the least extent discernible and severe was the greatest extent possible.\nTable S11. Histological pathological grades of organs slides obtained from mice treated for 48 h with 500 mg/kg Visabron c(4-4)*\nNumber** Heart Lung Kidney Intestine Large Stomach Spleen Liver Brain […]\n*Grade 0: no signs of pathological changes; Grade 1: mild pathological changes; Grade 2: moderate pathological changes; Grade 3: severe pathological changes."}, "[2]": {"conditions": "500 mg/kg i.v., all five mice 7683-7687"}, "[3]": {"conditions": "500 mg/kg per os, all five mice 7688-7692"}}, "note": "Like-named read-outs stand apart in the source and are kept apart here. Numbered stars: 1 amine (or outer) side, 2 acyl side, 3 side chain; on linkers, the order of the positions; unused ones are H or OH. Bridge positions count the residues as written; N and C are the ends. Square brackets hold non-standard residues; d marks the D form. Peptide text beside a SMILES is read from it. CO = O=C([*:1])[*:2]; Nlys = NCCCCNCC(=O)O", "data": [{"smiles": "CSCC[C@@H]1NC(=O)[C@H]([C@@H](C)O)NC(=O)CN(C(=O)[C@@H](N)CCCCN)CCCCNC(=O)NCCCCN(CC(=O)N[C@@H](CC(C)C)C(N)=O)C(=O)[C@H](CC(=O)O)NC(=O)[C@H](CC(C)C)NC1=O", "note": "[visabron c (4–4)] (H-K[Nlys]TMLD[Nlys]L-NH2; linker 2-7 via CO)", "values": [{"measurement": "inhibition at 1000 µM", "setting": "JAK3", "result": "25 to 40", "unit": "%"}, {"measurement": "Histological pathological grade, Brain", "setting": "[1]; [2]", "result": 0}, {"measurement": "Histological pathological grade, Heart", "setting": "[1]; [2]", "result": 0}, {"measurement": "Histological pathological grade, Kidney", "setting": "[1]; [2]", "result": 0}, {"measurement": "Histological pathological grade, Liver", "setting": "[1]; [2]", "result": 0}, {"measurement": "Histological pathological grade, Lung", "setting": "[1]; [2]", "result": 0}, {"measurement": "Histological pathological grade, Small Intestine", "setting": "[1]; [2]", "result": 0}, {"measurement": "Histological pathological grade, Spleen", "setting": "[1]; [2]", "result": 0}, {"measurement": "Histological pathological grade, Stomach", "setting": "[1]; [2]", "result": 0}, {"measurement": "Histological pathological grade, Large Intestine", "setting": "[1]; 500 mg/kg i.v., mouse 7683", "result": 0}, {"measurement": "Histological pathological grade, Large Intestine", "setting": "[1]; 500 mg/kg i.v., mouse 7684, finding considered accidental, most probably not related to the tested compound", "result": 3}, {"measurement": "Histological pathological grade, Large Intestine", "setting": "[1]; 500 mg/kg i.v., mouse 7685, finding considered accidental, most probably not related to the tested compound", "result": 3}, {"measurement": "Histological pathological grade, Large Intestine", "setting": "[1]; 500 mg/kg i.v., mouse 7686", "result": 0}, {"measurement": "Histological pathological grade, Large Intestine", "setting": "[1]; 500 mg/kg i.v., mouse 7687", "result": 0}, {"measurement": "Histological pathological grade, Brain", "setting": "[1]; [3]", "result": 0}, {"measurement": "Histological pathological grade, Heart", "setting": "[1]; [3]", "result": 0}, {"measurement": "Histological pathological grade, Kidney", "setting": "[1]; [3]", "result": 0}, {"measurement": "Histological pathological grade, Liver", "setting": "[1]; [3]", "result": 0}, {"measurement": "Histological pathological grade, Lung", "setting": "[1]; [3]", "result": 0}, {"measurement": "Histological pathological grade, Small Intestine", "setting": "[1]; [3]", "result": 0}, {"measurement": "Histological pathological grade, Spleen", "setting": "[1]; [3]", "result": 0}, {"measurement": "Histological pathological grade, Stomach", "setting": "[1]; [3]", "result": 0}, {"measurement": "Histological pathological grade, Large Intestine", "setting": "[1]; 500 mg/kg per os, mouse 7688", "result": 0}, {"measurement": "Histological pathological grade, Large Intestine", "setting": "[1]; 500 mg/kg per os, mouse 7689", "result": 0}, {"measurement": "Histological pathological grade, Large Intestine", "setting": "[1]; 500 mg/kg per os, mouse 7690, finding considered accidental, most probably not related to the tested compound", "result": 2}, {"measurement": "Histological pathological grade, Large Intestine", "setting": "[1]; 500 mg/kg per os, mouse 7691", "result": 0}, {"measurement": "Histological pathological grade, Large Intestine", "setting": "[1]; 500 mg/kg per os, mouse 7692", "result": 0}, {"measurement": "Short-term adverse pathological effects on major organs", "setting": "[1]; i.v. or per o.s., 500 mg/kg", "result": "without short-term adverse pathological effects"}]}]}
